Reference: BindingDB's records for doi:10.1002/cbic.201500668 (University of Siena, 2016)

What was measured:
Gag-Pol polyprotein [1] = molecular target: T1, Gag-Pol polyprotein (Human immunodeficiency virus type 1 group M subtype B (isolate NY5), UniProt P12497); assay: RNase H (RH) Assay; conditions: pH 7.8; 37 °C
Experimental: HIV RT-associated RNase H activity was measured as previously described.[J. Med. Chem. 2014, 57:3223-3234] Briefly, the reaction mixture comprised Tris HCl ([…], 50 mm, pH 7.8) containingMgCl2 (6 mm), dithiothreitol (1 mm), KCl (80 mm), hybrid RNA/DNA 5'-GAUCU GAGCC UGGGA GCU-Fluorescin-3' (0.25 mm; HPLC, dry, QC: Mass Check; Metabion, Steinkirchen, Germany), 5'-Dabcyl-AGCTC CCAGG CTCAG ATC-3' (HPLC, dry, QC: Mass Check), and HIV-1 RT (20 ng, according to a linear range of dose-activity curve). The reaction mixture was incubated for 1 h at 37 °C, and the reaction was stopped by addition of EDTA; products were measured with a Victor 3 multilabel counter plate reader (model 1420-051; PerkinElmer) equipped with filters (lex=490 nm, lem=528 nm).

Gag-Pol polyprotein [2] = molecular target: T1, Gag-Pol polyprotein; assay: RNA-dependent DNA Polymerase (RDDP) Assay; conditions: pH 8.1; 37 °C
Experimental: RNA-dependent DNA polymerase (RDDP) activity was measured as described[J. Microbiol. […] After enzyme addition, the reaction mixture was incubated for 30 min at 37 °C, then the reaction was stopped by addition of EDTA.

| Compound | IC50 (Gag-Pol polyprotein [1]) [µM] | IC50 (Gag-Pol polyprotein [2]) [µM] |
| --- | --- | --- |
| CCOC(=O)C(=O)CC(=O)/C=C/c1cccn1Cc1ccccc1Cl [RDS1759] | 7.5 | – |
| Cn1c(=O)c2c(nc3n2CC(O)CN3c2ccc(O)cc2)n(C)c1=O (stereo unspecified) [MAS0 (1)] | 100 | > 100 |
| CCc1ccc(N2CC(O)Cn3c2nc2c3c(=O)n(C)c(=O)n2C)cc1 (stereo unspecified) [STOCK2S-18057 (3)] | – | > 100 |
| CCCCCn1c(=O)c2c(nc3n2CCCN3c2ccc(Oc3ccccc3)cc2)n(C)c1=O [STOCK5S-18255 (2)] | 25 | 69 |
| CCCCCn1c(=O)c2c(nc3n2CC(C)CN3c2ccc(OC)cc2)n(C)c1=O (stereo unspecified) [STOCK4S-37006 (4)] | 97 | 100 |
| CCOc1ccc(N2CC(O)Cn3c2nc2c3c(=O)n(CC(=O)OCc3ccccc3)c(=O)n2C)cc1 (stereo unspecified) [STOCK4S-60534 (6)] | 33 | 28.5 |
| CCOc1ccc(N2CC(O)Cn3c2nc2c3c(=O)n(CC(N)=O)c(=O)n2C)cc1 (stereo unspecified) [STOCK5S-55040 (5)] | – | > 100 |
